Reference: patent US9868695B2 (priority 2014, dated 2018)
Several values for one entry are separate records, joined by “and”; a condition that tells them apart may be missing. Equal values may be shown once. Read-outs that look alike come from different tables or passages of the source.

Key:
P-gp = P-gp induction assay, rhodamine123 (Rh123) cell exclusion method in LS-180 cells
Procedure: All synthesized compounds were screened for their ability to induce P-gp by using rhodamine123 (Rh123) cell exclusion method. In this method, the P-gp function was evaluated in terms of rhodamine 123 (Rh123) accumulation and efflux. Briefly, the protocol used is as follows: Colorectal LS-180 cells (ECACC type, purchased from Sigma, Cat. no. 87021202, cell passage no. 52) were seeded at a density of 2×10^4 per well of 96 well plate and were allowed to grow for next 24 h. Cells were further incubated with the test compounds, and were diluted to a final concentration of 100 nM and rifampicin (standard) to a final concentration of 10 μM in complete media for 48 h. The final concentration of DMSO was kept at 0.1%. Drugs were removed and cells were incubated with HANKS buffer for 40 minutes before further incubation with HANKS buffer (containing 10 μM of Rh123 as a P-gp substrate) for 90 minutes. At the end of Rh123 treatment cells were washed four times with cold PBS followed by cell lysis for 1 h by using 200 μl of lysis buffer (0.1% Triton X-100 and 0.2 N NaOH). A total of 100 μl of lysate was used for reading fluorescence of Rh123 at 485 nm/529 nm. Samples were normalized by dividing fluorescence of each sample with total protein present in the lysate. For EC50 determination, different concentrations of compound were used to treat LS180 cells for 48 h. EC50 was determined by plotting fluorescence of Rh123 against concentration of compound.

HCT-116 = assay: Antiproliferative activity, MTT assay, HCT-116; type: cell-based, Human; conditions: 48 h
Procedure: Human colon cancer cell lines HCT-116 (NCI, passage no. 5) and Colo-205 116 (NCI, passage no. 3) were procured from National Cancer Institute, USA. HCT-116 and Colo-205 cells were grown in McCoy's 5A and RPMI growth medium respectively containing 10% FCS, 100 U penicillin and […] per mL medium. Cells were grown in CO2 incubator (Thermocon Electron Corporation, Houston, Tex.) at 37° C. with 95% humidity and 5% CO2 gas environment. Cells treated with tested materials were dissolved in DMSO while the untreated control cultures received only the vehicle (DMSO<0.2%). Cells were seeded in 96 well plates and exposed to tested compounds at various concentrations for 48 h time interval. MTT dye (2.5 mg/ml in PBS) was added 4 hrs priors to experiment termination. The plates were then centrifuged at 1500 rpm for 15 min and the supernatant was discarded, and MTT formazan crystals were dissolved in 150 μl of DMSO. The OD measured at 570 nm with reference wavelength of 620 nm.
The percentages of cell viability and growth inhibition were calculated using formulas: […]

[1] = system: microtubules in HCT-116 cells; assay: Effect of compounds on microtubules, confocal microscopy; type: cell-based, Human; conditions: 100 nM, 24 h, anti-α-tubulin staining, compared to control
Procedure: For detection of tubulins, HCT-116 cells (1×10^5 cells/well) were seeded on to 18 mm square cover slips in six well plates in complete medium. […] After the treatment period, cells were fixed in 4% paraformaldehyde for 10 min at room temperature and permeabilized using 0.5% Triton-X in PBS for 5 min. The cells were blocked with 10% goat serum for 20 min at room temperature. Microtubules were detected with a monoclonal α-tubulin antibody (Sigma, Catalogue number: T9026) diluted 1:100 in 0.1% Triton X-100 in PBS for 1 h at room temperature and Alexa Fluor 488 conjugated secondary antibody (Invitrogen) diluted 1:500 in PBS for 1 h at room temperature. Cells were then washed three times in PBS and stained with 4′,6-diamidino-2-phenylindole (DAPI 1 μg/ml in PBS). The cover slips were mounted over glass slides and cells were imaged by a laser scanning confocal microscope (Olympus Fluoview FV1000). The promising candidates identified through P-gp screening and antiproliferative screening were further studied for tubulin polymerization inhibition activity.

[2] = Thermodynamic equilibrium solubility; type: physicochemical; conditions: 25 °C, thermodynamic from solid, 25±1° C.
Procedure: The compounds were first dissolved in methanol to prepare stock solutions (100 and 1000 μg/mL). Different concentrations of stock solutions were pipetted into the 96-well plates and the solvent was evaporated to ensure that solid drug was present in the beginning of the experiment. Thereafter, 200 μl of the dissolution medium was added to the wells and 96-well plate was shaken horizontally at 300 rpm (Eppendorf Thermoblock Adapter, North America) for 4 h at room temperature (25±1° C.). The plates were kept overnight for equilibration of drug in medium. Later, the plates were centrifuged at 3000 rpm for 15 min (Jouan centrifuge BR4i). Supernatant (50 μl) was pipetted into UV 96-well plates (Corning® 96 Well Clear Flat Bottom UV-Transparent Microplate) for analyses with plate reader (SpectraMax Plus384) at λmax of 350 nm. The analyses were performed in triplicate for each compound. The solubility curve of concentration (μg/mL) vs absorbance was plotted to find out saturation point and the corresponding concentration was noted.

Ehrlich solid tumor = assay: In vivo activity in Ehrlich solid tumor model; parameters: species or system swiss mice; conditions: i/p day 1-9, 1 0.75 mg/kg, 1g 1 mg/kg, 5-fluorouracil 22 mg/kg; for Mortality: dead/group size
Procedure: Ehrlich ascites carcinoma (EAC) cells were collected from the peritoneal cavity of the swiss mice (animal house of IIIM registered eith CPCSEA; registration no. 67/99/CPCSEA) weighing 18-23 gm, harbouring 8-10 days old ascitic tumor. 1×10^7 EAC cells were injected intramuscularly in the right thigh of 38 swiss male mice selected for the experiment on day 0. The next day, animals were randomized and divided into five groups. Four treatment groups contained 7 animals each and one control group contained 10 animals. Treatment was given as follows:
Group I: 1 (0.75 mg/kg, i/p) from day 1-9.
Group II: 1g (1 mg/kg, i/p) from day 1-9.
The third treatment group was treated with 5-fluorouracil (22 mg/kg, i/p) from day 1-9 and it served as positive control. The control group was similarly administered normal saline (0.2 ml, i/p) from day 1-9. On day 9 & 13, tumor bearing thigh of each animal was shaved and longest and shortest diameters of the tumor were measured with the help of vernier caliper. Tumor weight of each animal was calculated using the following formula.
The percent tumor growth inhibition was calculated on day 13 by comparing the average values of treated groups with that of control group. Tumor growth in saline treated control animals was taken to be 100%.

COc1cc2c(c(OC)c1OC)-c1ccc(Nc3ccc(Cl)c(C(F)(F)F)c3)c(=O)cc1[C@@H](NC(C)=O)CC2 [Compound 1g, N-[(7S)-1,2,3-Trimethoxy-9-oxo-10-[3-(trifluoromethyl)-4-chloro-phenylamino]-5,6,7,9-tetrahydrobenzo[a]heptalen-7-yl]acetamide]
P-gp induction activity (P-gp; LS180 cells, Rh123 accumulation, in words): complete loss of P-gp induction activity
% intracellular accumulation of Rh123 in LS180 cells (P-gp; compound 100 nM, 48 h, control = 100%, decrease indicates P-gp induction): 90%
EC50 (P-gp; read-out: EC50, induction of P-gp, P-gp overexpressing LS-180 cells, 48 h): 69 nM
IC50 (HCT-116): 40 nM
disruption of microtubule assembly [1]: remarkable disruption and loss of microtubules
solubility ([2]; aqueous buffer, phosphate buffer saline, read-out: Solubility, PBS): > 1500 µg/mL
solubility ([2]; fassgf or other biorelevant, simulated intestinal fluid, read-out: Solubility, SIF): > 1500 µg/mL
solubility ([2]; simulated gastric fluid, read-out: Solubility, SGF): > 1500 µg/mL
solubility ([2]; water, read-out: Solubility, Water): > 1500 µg/mL
Avg. body weights (g) of animal on days 1 (Ehrlich solid tumor; day 1): 22.28 g
Avg. body weights (g) of animal on days 5 (Ehrlich solid tumor; day 5): 22.0 g
Avg. body weights (g) of animal on days 9 (Ehrlich solid tumor; day 9): 21.28 g
Day 13 Avg. body weights (Ehrlich solid tumor; day 13): 21.66 g
Day 13 Avg. tumor weights (Ehrlich solid tumor; day 13): 778.0 mg
% Tumor Growth Inhibition (Ehrlich solid tumor; day 13 vs saline control): 47.35%
Mortality (Ehrlich solid tumor): no mortality and 0/7
Mortality (Ehrlich solid tumor; listed as 4o): no mortality
